Results reported in ChEMBL document CHEMBL1134200, “Pimarane cyclooxygenase 2 (COX-2) inhibitor and its structure-activity relationship” (Bioorg Med Chem Lett, 2001).

Biological target: T1, Prostaglandin G/H synthase 2 (Ovis aries, UniProt P79208)
T1 sequence (P79208 whole entry): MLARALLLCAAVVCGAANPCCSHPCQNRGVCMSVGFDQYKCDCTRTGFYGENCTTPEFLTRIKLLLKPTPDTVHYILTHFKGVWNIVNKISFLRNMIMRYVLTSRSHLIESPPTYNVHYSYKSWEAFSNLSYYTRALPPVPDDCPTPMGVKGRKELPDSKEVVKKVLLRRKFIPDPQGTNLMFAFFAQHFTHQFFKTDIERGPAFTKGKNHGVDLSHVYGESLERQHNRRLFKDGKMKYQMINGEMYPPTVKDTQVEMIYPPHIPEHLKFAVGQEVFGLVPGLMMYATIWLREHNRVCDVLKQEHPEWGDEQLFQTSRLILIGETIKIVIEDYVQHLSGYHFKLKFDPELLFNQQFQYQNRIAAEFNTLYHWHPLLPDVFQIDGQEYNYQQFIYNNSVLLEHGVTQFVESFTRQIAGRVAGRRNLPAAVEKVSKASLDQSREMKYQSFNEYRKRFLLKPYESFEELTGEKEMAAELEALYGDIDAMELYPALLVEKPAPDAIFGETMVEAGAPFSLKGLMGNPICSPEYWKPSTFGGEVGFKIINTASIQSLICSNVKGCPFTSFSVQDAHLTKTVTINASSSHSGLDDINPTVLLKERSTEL
Experiment: Inhibitory activity against Prostaglandin G/H synthase 2 from sheep placental cotyledons

IC50 [µM]	Compound
819	C=C[C@@]1(C)CC=C2C(CCC3[C@](C)(C(=O)NO)CCC[C@@]23C)C1 (stereo not given in full)
> 1000	CC(=O)OCC[C@@]1(C)CC=C2C(CCC3[C@](C)(C(=O)O)CCC[C@@]23C)C1 (stereo not given in full)
> 1000	C[C@]1(CCF)CC=C2C(CCC3[C@](C)(C(=O)O)CCC[C@@]23C)C1 (stereo not given in full)
796	C[C@]1(CC(F)F)CC=C2C(CCC3[C@](C)(C(=O)O)CCC[C@@]23C)C1 (stereo not given in full)
> 1000	C=C[C@@]1(C)CC=C2C(CCC3[C@](C)(C(N)=O)CCC[C@@]23C)C1 (stereo not given in full)
194	C[C@]1(CCF)CC=C2C(CCC3[C@](C)(C(=O)F)CCC[C@@]23C)C1 (stereo not given in full)
13.2	C=C[C@@]1(C)CC=C2C(CCC3[C@](C)(CCC/C=C/C(=O)O)CCC[C@@]23C)C1 (stereo not given in full)
> 1000	C[C@@]1(C2CO2)CC2CCC3[C@](C)(C(=O)O)CCC[C@@]3(C)[C@@]23O[C@H]3C1 (stereo not given in full)
> 1000	C=C[C@@]1(C)CC=C2C(CCC3[C@](C)(CO)CCC[C@@]23C)C1 (stereo not given in full) [ACANTHOL]
82.3	C=C[C@@]1(C)CC=C2C(CCC3[C@](C)(CC(=O)O)CCC[C@@]23C)C1 (stereo not given in full)
> 1000	C=C[C@@]1(C)CC=C2C(CCC3[C@](C)(C(=O)OC)CCC[C@@]23C)C1 (stereo not given in full)
105	C=C[C@@]1(C)CC=C2C(CCC3[C@](C)(CCC(=O)O)CCC[C@@]23C)C1 (stereo not given in full)
> 1000	C[C@]1(CCO)CC=C2C(CCC3[C@](C)(C(=O)O)CCC[C@@]23C)C1 (stereo not given in full)
> 1000	COCC[C@@]1(C)CC=C2C(CCC3[C@](C)(C(=O)O)CCC[C@@]23C)C1 (stereo not given in full)
425	CC[C@@]1(C)CC=C2C(CCC3[C@](C)(C(=O)O)CCC[C@@]23C)C1 (stereo not given in full)
